Data set [1] is described as follows: Intrinsic dissolution of compressed discs. In kind it is physicochemical. Conditions: early time points. As for the experimental part: A Sotax AT7 dissolution bath (USP 2, EP 2 apparatus) was used for the dissolution study in which paddles were used to stir the media. All tests were carried out at 37° C. and a paddle speed of 100 rpm.
(§1) Approximately 100-120 mg of each form was compressed into discs by placing the material into a die (diameter: 13 mm) and compressing the die under 5 tons of pressure in a hydraulic press for ca. 2 minutes. A Sotax AT7 (conformed to EP2 and USP2) dissolution instrument was used containing paddles to stir the media at 100 rpm. Dissolution media of pH 3 (1% SDS) and pH 4.5 (1% SDS) were prepared using citrate/phosphate buffer. All materials were tested in 750 ml of the buffer medium. Discs were added at time=0 seconds and allowed to sink to the bottom of the dissolution vessel before stirring began. ca. 1 ml aliquots of media were extracted from the dissolution vessels at times 1, 5, 10, 15, 30, 60, 120, 240 minutes and 24 hours, and tested for dissolved salt concentration by HPLC-UV. The dissolution tests were carried out in duplicate. For both dissolution media, the peak areas for the initial time points (up to 15 minutes), fell below the limit of quantification, however, when plotting Dissolution rate vs. time, the steepest part of the curve occurs during these early time points.
as §1, with “material” for “each form”, “API” for “dissolved salt”

Data set [2] can be described thus: Dynamic vapour sorption (DVS). In kind it is physicochemical. As for the experimental part:
For dynamic vapour sorption (DVS), approximately 10-20 mg of sample was placed into a wire mesh vapour sorption balance pan and loaded into a DVS-1 dynamic vapour sorption balance by Surface Measurement Systems. The sample was subjected to a ramping profile from 20-90% relative humidity (RH) at 10% increments, maintaining the sample at each step until a stable weight had been achieved (99.5% step completion). After completion of the sorption cycle, the sample was dried using the same procedure, but all the way down to 0% RH and finally taken back to the starting point of 20% RH. The weight change during the sorption/desorption cycles were plotted, allowing for the hygroscopic nature of the sample to be determined.

With `Br.C=CC(=O)Nc1cccc(Nc2nc(Nc3ccc(N4CCN(C(C)=O)CC4)cc3OC)ncc2C(F)(F)F)c1` [Form I hydrobromide salt], the intrinsic dissolution value result in data set [1] (pH 3.0 (1% SDS), tablet 1) is “approximately 0.35 mg/cm^2/min”; in data set [1] (pH 3.0 (1% SDS), tablet 2) it was “approximately 0.35 mg/cm^2/min”; in data set [1] (pH 4.5 (1% SDS), tablet 1), “approximately 0.27 mg/cm^2/min”; in data set [1] (pH 4.5 (1% SDS), tablet 2), around 0.28 mg/cm^2/min. Further, in data set [2] (after DVS cycles, listed as hydrobromide salt), the “post DVS XRPD analysis (polymorphic form)” value is reported as “remain consistent”. Besides, the “water uptake (DVS)” value in data set [2] (between 20 and 70% RH) was 0.97%.
